Results: patent US8815935B2, “Inhibitors of protein prenyltransferases” (The Regents of the University of California, priority 2008, dated 2014)
Like-named read-outs stand apart in the source and are kept apart here.

How the values were obtained:
GGTase-I = target: T1, GGTase-I (Rattus norvegicus, UniProt P53610+Q04631); test: In vitro GGTase-I enzyme assay (IC50, kinetics); type: biochemical
T1 construct: purchased JENA BIOSCIENCE
Method: The GGTase-I assay was carried out using RhoA as a substrate protein, GGTase-I (JENA Bioscience) and [3H]geranylgeranyl pyrophosphate. Incubation was for 30 min at 37° C. GGTase-II (or RabGGTase) assay was carried out using YPTI as a substrate protein, GGTase-II (Calbiochem, San Diego, Calif.) plus REP1 (Calbiochem) and [3H]geranylgeranyl pyrophosphate. Incubation was for 30 min at 37° C. FIGS. 20D-20F show the three dimensional structure of GGTase I (D), FTsse (E) and GGTase II (F) which can be obtained from X-ray diffraction studies of protein crystals.
GGTase-I and FTase activities were determined by following the incorporation of radiolabeled isoprenoid [^3H]-geranylgeranyl or [^3H]-farnesyl into substrate proteins. FTase or GGTase-I (50 nM) were used to initiate reactions containing 0.4 μM of [^3H]-FPP or 0.5 μM of [^3H]-GGPP and 2 μM of MBP-tagged substrates (K-Ras4B for FTase; RhoA for GGTase-I) in 20 μl of buffer {50 mM Tris-HCl (pH 7.5), 10 mM MgCl2, […] and 5 mM DTT}. Inhibitors were added at the indicated concentrations. The final DMSO concentration was 2.5% for all samples.
Reactions were carried out for 10 min at 30° C. The reaction mixture was spotted onto a filter paper, treated with 10% trichloroacetic acid (TCA) followed by ethanol and acetone washing. The filter was counted using a scintillation counter. Kinetic assays in which the GGPP concentration was varied employed fixed concentrations of GGTase-I and RhoA, and reactions were carried out for 5 min. Similarly, fixed concentrations of GGTase-I and GGPP were used when the amount of RhoA was varied.

Jurkat cells = test: Jurkat cell growth inhibition; type: cell-based, human
Method: In Table 4 in cell GI50 values for the growth inhibition of Jurkat cells are reported. The GI50 value is the concentration of a test compound needed to produce 50% growth inhibition in the cell type listed. In Table 4 the isolated yield of each synthetic step for the synthesis of corresponding compounds are also reported.
Panc-1 cells (Pancreatic cancer cell line) and Jurkat cells (T-cell leukemia) were treated with 12.5 μM of P5-H6 or 12.5 μM of mP5-H6a for 72 hours. The cell number was counted as described in Example 5.
Cell viability was determined by Cell Counting Kit-8 (CCK-8, Dojindo, Kumamoto, Japan) as described previously (31). Cell viability was calculated relative to the DMSO control. Cell cycle profile was analyzed by flow cytometry as described previously (32).

[1] = Tables 3, 5, 7, read-out: In vitro (enzyme assay) IC50, GGTase I
[2] = Homo sapiens, Jurkat, Tables 4, 6, 7, read-out: Jurkat cell GI50
[3] = Tables 5, 14, read-out: In vitro (enzyme assay) IC50, GGTase I
[4] = Tables 8-15, no unit printed there (Table 7 head: μM unless otherwise specified), read-out: In vitro (GGTase I IC50)
[5] = Homo sapiens, Jurkat, Tables 8-15, no unit printed there, read-out: Jurkat GI50

IC50 (GGTase-I; [1]) [µM]	IC50 (GGTase-I; [3]) [µM]	Compound	also measured
39.1	–	CC(C)C[C@H](NC(=O)C1=CC[C@@H](c2cccc(Br)c2)N(S(=O)(=O)c2ccc(Cl)cc2)C1c1cccc(Cl)c1)C(N)=O (some centres unmarked) [P61-C06]	GI50 (Jurkat cells; [2]): 3.15 µM
–	0.07	O=C(NC(Cc1ccccc1)C(=O)O)C1=CCC(c2cccc(Br)c2)N(S(=O)(=O)c2ccc(Cl)cc2)C1c1cccc(Cl)c1 (centres unmarked) [P61-G07]	–
1.4	–	Cc1ccccc1S(=O)(=O)N1[C@@H](c2ccc(Cl)cc2)C(C(=O)N[C@@H](Cc2ccccc2)C(=O)O)=C[C@H]1C(C)(C)C [P61-A08]	GI50 (Jurkat cells; [2]): 13 µM
> 20	–	COC(=O)C(CC(C)C)NC(=O)C1=CCC(c2cccc(Br)c2)N(S(=O)(=O)c2ccc(Cl)cc2)C1c1cccc(Cl)c1 (centres unmarked) [P67-A07]	–
> 20	–	CC(C)C[C@H](NC(=O)C1=CC[C@@H](c2cccc(Cl)c2)N(S(=O)(=O)c2ccc(Br)cc2)[C@H]1c1cccc(Cl)c1)C(N)=O [P61-E08]	–
–	0.06	CC(C)CC(NC(=O)C1=CCC(c2cccc(Br)c2)N(S(=O)(=O)c2ccc(Cl)cc2)C1c1cccc(Cl)c1)C(=O)O (centres unmarked) [P61-G08]	–
> 50	–	Cc1ccccc1S(=O)(=O)N1C(c2cccc(Cl)c2)C(C(=O)N[C@@H](CC(C)C)C(N)=O)=CC[C@H]1c1ccc(Cl)cc1 (some centres unmarked) [P61-C05]	GI50 (Jurkat cells; [2]): 6.1 µM
> 20	–	COC(=O)[C@H](CC(C)C)NC(=O)C1=CC[C@@H](c2ccc(Cl)cc2)N(S(=O)(=O)c2ccccc2C)[C@H]1c1cccc(Cl)c1 [P61-E07]	GI50 (Jurkat cells; [2]): 3.53 µM
–	0.021	O=C(NC(Cc1ccccc1)C(=O)O)C1=CCC(c2cccc(Cl)c2)N(S(=O)(=O)c2ccc(Cl)cc2)C1c1cccc(Cl)c1 (centres unmarked) [P61-H09]	–
–	0.5	CC(C)CC(NC(=O)C1=CCC(c2cccc(Cl)c2)N(S(=O)(=O)c2ccc(Br)cc2)C1c1cccc(Cl)c1)C(=O)O (centres unmarked) [P61-E11]	–

Continued, molecule first:

Compound	IC50 (GGTase-I; [1]) [µM]	IC50 (GGTase-I; [3]) [µM]	also measured
O=C(NC(Cc1ccccc1)C(=O)O)C1=CCC(c2cccc(Cl)c2)N(S(=O)(=O)c2ccc(Br)cc2)C1c1cccc(Cl)c1 (centres unmarked) [P61-G05]	–	0.15	–
NC(=O)[C@H](Cc1ccccc1)NC(=O)C1=CC[C@@H](c2cccc(Cl)c2)N(S(=O)(=O)c2ccc(Br)cc2)C1c1cccc(Br)c1 (some centres unmarked) [P61-E09]	> 20	–	IC50 (GGTase-I; [4]): > 20 µM
COC(=O)[C@H](Cc1ccccc1)NC(=O)C1=C[C@@H](C(C)(C)C)N(S(=O)(=O)c2ccccc2C)[C@H]1c1ccc(Cl)cc1 [P61-A05]	–	–	GI50 (Jurkat cells; Tables 4, 6, 7, read-out: Jurkat cell GI50): 10.5 µM
Cc1ccccc1S(=O)(=O)N1[C@@H](c2cccc(Cl)c2)C(C(=O)N[C@@H](CC(C)C)C(N)=O)=CC[C@H]1c1ccc(Cl)cc1	–	–	IC50 (GGTase-I; [4]): > 50 µM
COC(=O)[C@H](Cc1ccccc1)NC(=O)CCOCC1=C[C@@H](C(C)(C)C)N(S(=O)(=O)c2ccccc2C)[C@H]1c1ccc(Cl)cc1	–	–	IC50 (GGTase-I; [4]): > 20 µM; GI50 (Jurkat cells; [5]): 5.1 µM
Cc1ccccc1S(=O)(=O)N1[C@@H](c2ccc(Cl)cc2)C(C(=O)N[C@@H](CC(C)C)C(N)=O)=C[C@H]1C(C)(C)C [P61-B02]	8.1	–	GI50 (Jurkat cells; [2]): 6.58 µM
Cc1ccccc1S(=O)(=O)N1[C@@H](c2ccc(Cl)c(Cl)c2)C(C(=O)O)=C[C@H]1C(C)(C)C	–	–	IC50 (GGTase-I; [4]): 0.363 µM
NC(=O)[C@H](Cc1ccccc1)NC(=O)C1=CC[C@@H](c2cccc(Br)c2)N(S(=O)(=O)c2ccc(Cl)cc2)C1c1cccc(Cl)c1 (some centres unmarked) [P61-F11]	–	0.3	–
NC(=O)[C@H](Cc1ccccc1)NC(=O)C1=CC[C@@H](c2cccc(Br)c2)N(S(=O)(=O)c2ccc(Cl)cc2)C1c1cccc(Cl)c1 (some centres unmarked) [P61-G02]	–	0.45	–
CC(C)(C)[C@@H]1C=C(C(=O)N[C@@H](Cc2ccccc2)C(N)=O)[C@H](c2ccc(Cl)c(Cl)c2)N1S(=O)(=O)c1ccccc1Br [P61-E03]	> 20	–	–
Cc1ccccc1S(=O)(=O)N1C(c2cccc(Cl)c2)C(C(N)=O)=CC[C@H]1c1ccc(Cl)cc1 (some centres unmarked)	–	–	IC50 (GGTase-I; [4]): > 20 µM; GI50 (Jurkat cells; [5]): 5.36 µM
CC(C)C[C@H](NC(=O)C1=CC[C@@H](c2cccc(Cl)c2)N(S(=O)(=O)c2ccc(Br)cc2)[C@H]1c1cccc(Cl)c1)C(N)=O [drawing 209]	–	–	IC50 (GGTase-I; [4]): > 20 µM
CONC(=O)C1=C[C@@H](C(C)(C)C)N(S(=O)(=O)c2ccccc2C)[C@H]1c1ccc(Cl)cc1	3.8	–	GI50 (Jurkat cells; [2]): 12.6 µM
